Results reported in the supplement of paper PMC13380429.

Experiments:
[1] = tested on: A549-ACE2; assay: drug-induced phospholipidosis relative to tamoxifen; higher = more phospholipidosis
[2] = tested on: A549-ACE2; assay: phospholipidosis EC50; higher = less potent phospholipidosis inducer; conditions: 24 h
[3] = tested on: U2OS; assay: drug sensitivity score (DSS) for viability; higher = more toxic; extreme values may be limits of the assay; conditions: 72 h
[4] = tested on: HepG2; assay: as above; conditions: 72 h
[5] = tested on: Caco-2; assay: as above; conditions: 72 h
[6] = tested on: Vero E6; assay: as above; conditions: 72 h
[7] = tested on: Calu-3; assay: as above; conditions: 72 h
[8] = tested on: A549-ACE2 infected with SARS-CoV-2; assay: cell count relative to DMSO; higher = less toxic; conditions: 24 h
[9] = tested on: U2OS; assay: relative viability EC50 (midpoint between 100% and the lowest measured viability); higher = less toxic; conditions: 72 h
[10] = tested on: HepG2; assay: as above; conditions: 72 h
[11] = tested on: Vero E6; assay: as above; conditions: 72 h
[12] = tested on: A549-ACE2 infected with SARS-CoV-2; assay: SARS-CoV-2 infection rate relative to DMSO; higher = more infection; conditions: 24 h
[13] = tested on: U2OS; assay: cell viability relative to DMSO; higher = less toxic; conditions: 72 h
[14] = tested on: HepG2; assay: as above; conditions: 72 h
[15] = tested on: Caco-2; assay: as above; conditions: 72 h
[16] = tested on: Vero E6; assay: as above; conditions: 72 h
[17] = tested on: Calu-3; assay: as above; conditions: 72 h
[18] = tested on: A549-ACE2 infected with SARS-CoV-2; assay: morphology score (similarity to uninfected cells); higher = more like uninfected cells; conditions: 24 h

CC(C)n1nc(C#Cc2ccccc2)c2c(N)ncnc21 [SPP86]
drug-induced phospholipidosis [%], [1]
Conditions	0.3 µM	0.833333 µM	3.33333 µM	6.66667 µM	10 µM	30 µM
24 h	3.29	3.69	12.6	41.4	63.6	142
48 h	3.96	2.69	12.1	21.7	35.6	–
72 h	6.41	0.816	8.31	18.5	28.1	–

Conditions	drug sensitivity score	phospholipidosis EC50 [µM]	relative viability EC50 [µM]
[2]	–	15.1	–
[3]	0.6	–	–
[4]	8.3	–	–
[5]	6.9	–	–
[6]	0.7	–	–
[7]	3	–	–
[9]	–	–	> 10
[10]	–	–	0.858
[11]	–	–	> 10

Conditions	SARS-CoV-2 infection rate, [12] [%]	cell count, [8] [%]	cell viability, [13] [%]	cell viability, [14] [%]	cell viability, [15] [%]	cell viability, [16] [%]	cell viability, [17] [%]	morphology score, [18]
1 nM	–	–	106	102	98.1	99.7	107	–
10 nM	–	–	109	106	98.9	99.7	104	–
100 nM	–	–	107	103	88.9	100	99.7	–
0.3 µM	90	103	–	–	–	–	–	0.34
1000 nM	–	–	107	60.9	67.7	98.5	92.7	–
3 µM	89	103	–	–	–	–	–	0.41
10 µM	53	106	–	–	–	–	–	0.54
10000 nM	–	–	75.7	34.4	56.5	81.3	62.8	–
30 µM	32	84	–	–	–	–	–	0.29
